From ChEMBL document CHEMBL3098111, “Discovery of 2,5-diarylnicotinamides as selective orexin-2 receptor antagonists (2-SORAs)” (Bioorg Med Chem Lett, 2013)

Legend:
[1] = species on record: Rattus norvegicus; test: Inhibition of rat sodium channel site 2 at 10 uM relative to control
[2] = target: Tyrosine 3-monooxygenase (Rattus norvegicus) (UniProt P04177); test: Inhibition of rat tyrosine hydroxylase at 10 uM relative to control
[3] = species on record: Rattus norvegicus; test: Inhibition of rat 5-HT2 receptor at 10 uM relative to control
[4] = target: Galanin receptor type 1 (Homo sapiens) (UniProt P47211); test: Inhibition of human GAL1 receptor at 10 uM relative to control
[5] = target: Adenosine receptor A2a (Homo sapiens) (UniProt P29274); test: Inhibition of human adenosine A2A receptor at 10 uM relative to control
[6] = target: Tyrosine-protein phosphatase non-receptor type 2 (Homo sapiens) (UniProt P17706); test: Inhibition of human TCPTP at 10 uM relative to control
[7] = species on record: Rattus norvegicus; test: Inhibition of rat N-type calcium channel at 10 uM relative to control
[8] = species on record: Rattus norvegicus; test: Inhibition of rat GABAA central type receptor muscimol binding site at 10 uM relative to control
[9] = target: Neuropeptide Y receptor type 2 (Homo sapiens) (UniProt P49146); test: Inhibition of human neuropeptide YY2 receptor at 10 uM relative to control
[10] = target: T1, 5-hydroxytryptamine receptor 1A (Homo sapiens) (UniProt P08908); test: Inhibition of human 5-HT1A receptor at 10 uM relative to control
T1 sequence (whole entry): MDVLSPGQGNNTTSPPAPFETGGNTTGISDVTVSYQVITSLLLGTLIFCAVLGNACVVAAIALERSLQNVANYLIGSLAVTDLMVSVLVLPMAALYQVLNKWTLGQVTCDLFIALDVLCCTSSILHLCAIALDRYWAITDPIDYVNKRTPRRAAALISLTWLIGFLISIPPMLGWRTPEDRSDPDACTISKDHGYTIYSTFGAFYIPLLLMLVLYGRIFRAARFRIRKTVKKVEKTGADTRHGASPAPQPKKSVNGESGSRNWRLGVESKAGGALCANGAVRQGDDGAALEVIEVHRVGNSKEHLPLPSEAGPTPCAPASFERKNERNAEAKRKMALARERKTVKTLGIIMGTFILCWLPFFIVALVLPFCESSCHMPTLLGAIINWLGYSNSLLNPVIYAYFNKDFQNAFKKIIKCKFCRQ

[11] = species on record: Rattus norvegicus; test: Inhibition of rat GABAA chloride channel TBOB binding site at 10 uM relative to control
[12] = species on record: Rattus norvegicus; test: Inhibition of rat glutamate receptor at 10 uM relative to control
[13] = target: Mu-type opioid receptor (Homo sapiens, UniProt P35372); test: Inhibition of human mu opioid receptor at 1 uM relative to control
[14] = target: Cholecystokinin receptor type A (Homo sapiens) (UniProt P32238); test: Inhibition of human CCKA receptor at 10 uM relative to control
Sequence of Cholecystokinin receptor type A (Homo sapiens) (P32238 whole entry): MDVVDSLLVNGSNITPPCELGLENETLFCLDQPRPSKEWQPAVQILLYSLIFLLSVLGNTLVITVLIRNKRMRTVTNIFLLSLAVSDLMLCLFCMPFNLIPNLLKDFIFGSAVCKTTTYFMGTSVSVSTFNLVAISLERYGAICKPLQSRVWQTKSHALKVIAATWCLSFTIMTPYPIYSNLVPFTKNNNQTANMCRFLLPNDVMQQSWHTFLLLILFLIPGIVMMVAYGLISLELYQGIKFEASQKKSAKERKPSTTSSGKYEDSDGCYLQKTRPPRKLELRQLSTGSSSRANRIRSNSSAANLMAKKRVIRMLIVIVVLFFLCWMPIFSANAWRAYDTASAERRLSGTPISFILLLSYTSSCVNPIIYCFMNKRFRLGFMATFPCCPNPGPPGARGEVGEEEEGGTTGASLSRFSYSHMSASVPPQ

Sequence of Neuropeptide Y receptor type 2 (Homo sapiens) (P49146 whole entry): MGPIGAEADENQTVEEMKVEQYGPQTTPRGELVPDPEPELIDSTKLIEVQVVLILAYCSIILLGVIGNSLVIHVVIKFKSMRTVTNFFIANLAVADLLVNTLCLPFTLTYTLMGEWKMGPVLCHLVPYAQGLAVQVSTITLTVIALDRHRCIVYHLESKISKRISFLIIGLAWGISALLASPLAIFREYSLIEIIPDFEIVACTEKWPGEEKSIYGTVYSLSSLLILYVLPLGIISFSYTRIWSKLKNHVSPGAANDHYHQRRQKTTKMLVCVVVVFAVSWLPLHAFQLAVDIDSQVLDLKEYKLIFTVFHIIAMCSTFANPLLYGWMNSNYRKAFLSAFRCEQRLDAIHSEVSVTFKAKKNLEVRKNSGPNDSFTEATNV
Sequence of Tyrosine-protein phosphatase non-receptor type 2 (Homo sapiens) (P17706 whole entry): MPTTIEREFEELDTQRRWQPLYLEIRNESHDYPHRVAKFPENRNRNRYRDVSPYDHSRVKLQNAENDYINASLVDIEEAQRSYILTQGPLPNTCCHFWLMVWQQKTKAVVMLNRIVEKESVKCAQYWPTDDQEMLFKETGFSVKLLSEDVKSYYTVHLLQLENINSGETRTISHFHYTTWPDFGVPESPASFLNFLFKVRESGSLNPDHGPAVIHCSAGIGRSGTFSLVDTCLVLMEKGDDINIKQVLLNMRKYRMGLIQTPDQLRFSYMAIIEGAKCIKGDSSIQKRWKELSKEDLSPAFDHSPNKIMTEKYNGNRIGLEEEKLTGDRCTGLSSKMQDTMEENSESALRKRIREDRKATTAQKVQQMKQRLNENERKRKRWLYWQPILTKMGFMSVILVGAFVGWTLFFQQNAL
Sequence of Mu-type opioid receptor (P35372 whole entry): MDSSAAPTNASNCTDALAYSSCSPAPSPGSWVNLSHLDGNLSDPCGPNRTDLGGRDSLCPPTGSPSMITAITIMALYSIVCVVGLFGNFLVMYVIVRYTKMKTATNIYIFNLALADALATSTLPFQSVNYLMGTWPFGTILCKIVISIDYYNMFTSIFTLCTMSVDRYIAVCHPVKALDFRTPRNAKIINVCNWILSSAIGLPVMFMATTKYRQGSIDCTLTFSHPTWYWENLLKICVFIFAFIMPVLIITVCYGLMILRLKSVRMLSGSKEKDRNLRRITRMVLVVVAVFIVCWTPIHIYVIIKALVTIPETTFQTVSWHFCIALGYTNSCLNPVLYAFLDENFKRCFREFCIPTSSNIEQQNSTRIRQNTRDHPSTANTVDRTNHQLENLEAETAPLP
Sequence of Galanin receptor type 1 (Homo sapiens) (P47211 whole entry): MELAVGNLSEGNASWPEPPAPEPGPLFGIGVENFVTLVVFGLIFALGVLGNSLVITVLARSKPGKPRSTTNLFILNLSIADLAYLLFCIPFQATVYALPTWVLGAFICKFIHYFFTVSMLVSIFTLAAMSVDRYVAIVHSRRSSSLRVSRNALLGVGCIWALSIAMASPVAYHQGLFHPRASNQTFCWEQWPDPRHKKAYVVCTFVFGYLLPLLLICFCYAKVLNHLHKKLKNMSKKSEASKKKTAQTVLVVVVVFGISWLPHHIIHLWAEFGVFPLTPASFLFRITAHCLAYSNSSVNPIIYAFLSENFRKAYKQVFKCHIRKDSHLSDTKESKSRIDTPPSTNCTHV
Sequence of Adenosine receptor A2a (Homo sapiens) (P29274 whole entry): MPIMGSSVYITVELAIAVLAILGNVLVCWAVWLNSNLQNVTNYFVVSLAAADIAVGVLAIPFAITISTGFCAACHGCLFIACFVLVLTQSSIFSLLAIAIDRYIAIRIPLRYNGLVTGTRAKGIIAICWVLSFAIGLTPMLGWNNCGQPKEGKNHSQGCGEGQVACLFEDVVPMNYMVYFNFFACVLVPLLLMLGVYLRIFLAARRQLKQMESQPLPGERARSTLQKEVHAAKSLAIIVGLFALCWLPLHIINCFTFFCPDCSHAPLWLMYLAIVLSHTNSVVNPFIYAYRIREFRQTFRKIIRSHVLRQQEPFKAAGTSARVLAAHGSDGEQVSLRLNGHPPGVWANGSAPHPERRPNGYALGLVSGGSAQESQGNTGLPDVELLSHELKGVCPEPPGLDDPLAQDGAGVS
Sequence of Tyrosine 3-monooxygenase (Rattus norvegicus) (P04177 whole entry): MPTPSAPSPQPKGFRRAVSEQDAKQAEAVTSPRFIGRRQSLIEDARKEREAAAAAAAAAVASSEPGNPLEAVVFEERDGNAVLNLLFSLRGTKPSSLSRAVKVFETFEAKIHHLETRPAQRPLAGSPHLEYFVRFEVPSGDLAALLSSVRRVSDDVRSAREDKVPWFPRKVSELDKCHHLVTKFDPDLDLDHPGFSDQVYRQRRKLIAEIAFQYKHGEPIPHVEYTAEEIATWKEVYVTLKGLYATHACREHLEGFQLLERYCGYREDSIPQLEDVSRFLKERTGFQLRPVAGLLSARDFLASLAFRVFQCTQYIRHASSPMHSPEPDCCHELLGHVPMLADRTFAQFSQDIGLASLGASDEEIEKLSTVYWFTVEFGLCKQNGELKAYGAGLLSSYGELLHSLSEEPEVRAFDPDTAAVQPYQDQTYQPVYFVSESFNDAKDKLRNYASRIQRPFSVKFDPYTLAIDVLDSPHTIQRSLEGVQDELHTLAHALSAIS

inhibition [1]: 39%
inhibition [2]: -3%
inhibition [3]: 17%
inhibition [4]: 3%
inhibition [5]: 8%
inhibition [6]: 4%
inhibition [7]: 2%
inhibition [8]: 9%
inhibition [9]: 0%
inhibition [10]: 69%
inhibition [11]: 8%
inhibition [12]: -6%
inhibition [13]: 26%
inhibition [14]: 9%
Structure (SMILES): COc1ccc(CNC(=O)c2cc(-c3cc(Cl)cc(Cl)c3)cnc2-c2cccnc2)cc1OC
